# Measured values published in patent publication US20050197350A1, “Novel quinoline, tetrahydroquinazoline, and pyrimidine derivatives and methods of treatment related to the use thereof” (TAISHO PHARMACEUTICAL CO., LTD., priority 2003, published 2005).
# Tested on: MCH receptors
# Test: MCH receptor activity class (method not given)
# Conditions: class by percent of control at 10^−7 M or IC50
row,SMILES,class
1,"Cc1cc(N(C)C)nc(NC[C@H]2CC[C@@H](NC(=O)c3ccc(F)c(F)c3)CC2)n1 [compound 2734, N-[cis-4-({[4-(dimethylamino)-6-methylpyrimidin-2-yl]amino}methyl)cyclohexyl]-3,4-difluorobenzamide]",3 (Class 3 The value of percent of control at 10^−7 M was more than 60% or the value of IC50 was more than 200 nM.)
2,COc1ccc(C(=O)N[C@H]2CC[C@@H](CNc3nc(C)cc(N(C)C)n3)CC2)cc1 [compound 2735],3 (Class 3 The value of percent of control at 10^−7 M was more than 60% or the value of IC50 was more than 200 nM.)
3,COc1cc(OC)cc(C(=O)N[C@H]2CC[C@@H](CNc3nc(C)cc(N(C)C)n3)CC2)c1 [compound 2736],3 (Class 3 The value of percent of control at 10^−7 M was more than 60% or the value of IC50 was more than 200 nM.)
4,Cc1cc(N(C)C)nc(NC[C@H]2CC[C@@H](NC(=O)c3ccc(C)c(F)c3)CC2)n1 [compound 2737],3 (Class 3 The value of percent of control at 10^−7 M was more than 60% or the value of IC50 was more than 200 nM.)
5,Cc1cc(N(C)C)nc(NC[C@H]2CC[C@@H](NC(=O)c3ccc(F)c(C)c3)CC2)n1 [compound 2738],3 (Class 3 The value of percent of control at 10^−7 M was more than 60% or the value of IC50 was more than 200 nM.)
6,Cc1cc(N(C)C)nc(NC[C@H]2CC[C@@H](NC(=O)c3cccc(C(F)(F)F)c3)CC2)n1 [compound 2739],3 (Class 3 The value of percent of control at 10^−7 M was more than 60% or the value of IC50 was more than 200 nM.)
7,Cc1cc(N(C)C)nc(NC[C@H]2CC[C@@H](NC(=O)c3ccc(C(F)(F)F)cc3)CC2)n1 [compound 2740],3 (Class 3 The value of percent of control at 10^−7 M was more than 60% or the value of IC50 was more than 200 nM.)
8,Cc1cc(N(C)C)nc(NC[C@H]2CC[C@@H](NC(=O)c3cccc(OC(F)(F)F)c3)CC2)n1 [compound 2741],3 (Class 3 The value of percent of control at 10^−7 M was more than 60% or the value of IC50 was more than 200 nM.)
9,Cc1cc(N(C)C)nc(NC[C@H]2CC[C@@H](NC(=O)c3ccc(OC(F)(F)F)cc3)CC2)n1 [compound 2742],3 (Class 3 The value of percent of control at 10^−7 M was more than 60% or the value of IC50 was more than 200 nM.)
10,Cc1cc(N(C)C)nc(NC[C@H]2CC[C@@H](NC(=O)c3ccc(C#N)cc3)CC2)n1 [compound 2743],3 (Class 3 The value of percent of control at 10^−7 M was more than 60% or the value of IC50 was more than 200 nM.)
11,"Cc1cc(N(C)C)nc(NC[C@H]2CC[C@@H](NC(=O)c3ccc(Br)cc3)CC2)n1 [compound 2744, 4-bromo-N-[cis-4-({[4-(dimethylamino)-6-methylpyrimidin-2-yl]amino}methyl)cyclohexyl]benzamide]",2 (Class 2: The value of percent of control at 10^−7 M was from 40% to 60% or the value of IC′50 was from 50 nM to 200 nM.)
12,"Cc1cc(N(C)C)nc(NC[C@H]2CC[C@@H](NC(=O)c3ccc(Br)c(C)c3)CC2)n1 [compound 2745, 4-bromo-N-[cis-4-({[4-(dimethylamino)-6-methylpyrimidin-2-yl]amino}methyl)cyclohexyl]-3-methylbenzamide]",2 (Class 2: The value of percent of control at 10^−7 M was from 40% to 60% or the value of IC′50 was from 50 nM to 200 nM.)
13,Cc1cc(N(C)C)nc(NC[C@H]2CC[C@@H](NC(=O)c3ccc(F)c(Cl)c3)CC2)n1 [compound 2746],3 (Class 3 The value of percent of control at 10^−7 M was more than 60% or the value of IC50 was more than 200 nM.)
14,Cc1cc(N(C)C)nc(NC[C@H]2CC[C@@H](NC(=O)c3ccc(C(F)(F)F)c(F)c3)CC2)n1 [compound 2747],3 (Class 3 The value of percent of control at 10^−7 M was more than 60% or the value of IC50 was more than 200 nM.)
15,Cc1cc(N(C)C)nc(NC[C@H]2CC[C@@H](NC(=O)c3cc(Cl)cc(Cl)c3)CC2)n1 [compound 2748],2 (Class 2: The value of percent of control at 10^−7 M was from 40% to 60% or the value of IC′50 was from 50 nM to 200 nM.)
16,Cc1cc(N(C)C)nc(NC[C@H]2CC[C@@H](NC(=O)c3ccc(Cl)c(Cl)c3)CC2)n1 [compound 2749],2 (Class 2: The value of percent of control at 10^−7 M was from 40% to 60% or the value of IC′50 was from 50 nM to 200 nM.)
17,Cc1cc(N(C)C)nc(NC[C@H]2CC[C@@H](NC(=O)c3ccc4c(c3)OC(F)(F)O4)CC2)n1 [compound 2750],3 (Class 3 The value of percent of control at 10^−7 M was more than 60% or the value of IC50 was more than 200 nM.)
18,"Cc1cc(N(C)C)nc(N[C@H]2CC[C@@H](CNC(=O)c3ccccc3)CC2)n1 [compound 2751, N-[(cis-4-{[4-(dimethylamino)-6-methylpyrimidin-2-yl]amino}cyclohexyl)methyl]benzamide]",3 (Class 3 The value of percent of control at 10^−7 M was more than 60% or the value of IC50 was more than 200 nM.)
19,Cc1ccc(C(=O)NC[C@H]2CC[C@@H](Nc3nc(C)cc(N(C)C)n3)CC2)cc1 [compound 2752],3 (Class 3 The value of percent of control at 10^−7 M was more than 60% or the value of IC50 was more than 200 nM.)

row,SMILES,class
1,"Cc1cc(N(C)C)nc(N[C@H]2CC[C@@H](CNC(=O)c3ccc(F)c(F)c3)CC2)n1 [compound 2753, N-[(cis-4-{[4-(dimethylamino)-6-methylpyrimidin-2-yl]amino}cyclohexyl)methyl]-3,4-difluorobenzamide]",3 (Class 3 The value of percent of control at 10^−7 M was more than 60% or the value of IC50 was more than 200 nM.)
2,COc1ccc(C(=O)NC[C@H]2CC[C@@H](Nc3nc(C)cc(N(C)C)n3)CC2)cc1 [compound 2754],3 (Class 3 The value of percent of control at 10^−7 M was more than 60% or the value of IC50 was more than 200 nM.)
3,Cc1cc(N(C)C)nc(N[C@H]2CC[C@@H](CNC(=O)c3ccc(C)c(F)c3)CC2)n1 [compound 2755],2 (Class 2: The value of percent of control at 10^−7 M was from 40% to 60% or the value of IC′50 was from 50 nM to 200 nM.)
4,Cc1cc(N(C)C)nc(N[C@H]2CC[C@@H](CNC(=O)c3ccc(F)c(C)c3)CC2)n1 [compound 2756],3 (Class 3 The value of percent of control at 10^−7 M was more than 60% or the value of IC50 was more than 200 nM.)
5,Cc1cc(N(C)C)nc(N[C@H]2CC[C@@H](CNC(=O)c3cccc(C(F)(F)F)c3)CC2)n1 [compound 2757],3 (Class 3 The value of percent of control at 10^−7 M was more than 60% or the value of IC50 was more than 200 nM.)
6,Cc1cc(N(C)C)nc(N[C@H]2CC[C@@H](CNC(=O)c3ccc(C(F)(F)F)cc3)CC2)n1 [compound 2758],2 (Class 2: The value of percent of control at 10^−7 M was from 40% to 60% or the value of IC′50 was from 50 nM to 200 nM.)
7,Cc1cc(N(C)C)nc(N[C@H]2CC[C@@H](CNC(=O)c3cccc(OC(F)(F)F)c3)CC2)n1 [compound 2759],3 (Class 3 The value of percent of control at 10^−7 M was more than 60% or the value of IC50 was more than 200 nM.)
8,Cc1cc(N(C)C)nc(N[C@H]2CC[C@@H](CNC(=O)c3ccc(OC(F)(F)F)cc3)CC2)n1 [compound 2760],3 (Class 3 The value of percent of control at 10^−7 M was more than 60% or the value of IC50 was more than 200 nM.)
9,Cc1cc(N(C)C)nc(N[C@H]2CC[C@@H](CNC(=O)c3ccc(C#N)cc3)CC2)n1 [compound 2761],3 (Class 3 The value of percent of control at 10^−7 M was more than 60% or the value of IC50 was more than 200 nM.)
10,Cc1cc(N(C)C)nc(N[C@H]2CC[C@@H](CNC(=O)c3ccc(Br)cc3)CC2)n1 [compound 2762],1 (Class 1: The value of percent of control at 10^−7 M was less than 40% or the value of IC50 was less than 50 nM.)
11,Cc1cc(N(C)C)nc(N[C@H]2CC[C@@H](CNC(=O)c3ccc(Br)c(C)c3)CC2)n1 [compound 2763],1 (Class 1: The value of percent of control at 10^−7 M was less than 40% or the value of IC50 was less than 50 nM.)
12,Cc1cc(N(C)C)nc(N[C@H]2CC[C@@H](CNC(=O)c3ccc(F)c(Cl)c3)CC2)n1 [compound 2764],1 (Class 1: The value of percent of control at 10^−7 M was less than 40% or the value of IC50 was less than 50 nM.)
13,Cc1cc(N(C)C)nc(N[C@H]2CC[C@@H](CNC(=O)c3ccc(C(F)(F)F)c(F)c3)CC2)n1 [compound 2765],2 (Class 2: The value of percent of control at 10^−7 M was from 40% to 60% or the value of IC′50 was from 50 nM to 200 nM.)
14,"Cc1cc(N(C)C)nc(N[C@H]2CC[C@@H](CNC(=O)c3cc(Cl)cc(Cl)c3)CC2)n1 [compound 2766, 3,5-dichloro-N-[(cis-4-{[4-(dimethylamino)-6-methylpyrimidin-2-yl]amino}cyclohexyl)methyl]benzamide]",2 (Class 2: The value of percent of control at 10^−7 M was from 40% to 60% or the value of IC′50 was from 50 nM to 200 nM.)
15,Cc1cc(N(C)C)nc(N[C@H]2CC[C@@H](CNC(=O)c3ccc(Cl)c(Cl)c3)CC2)n1 [compound 2767],2 (Class 2: The value of percent of control at 10^−7 M was from 40% to 60% or the value of IC′50 was from 50 nM to 200 nM.)
16,"Cc1cc(N(C)C)nc(N[C@H]2CC[C@@H](CNC(=O)c3ccc(Cl)cc3)CC2)n1 [compound 2770, 4-chloro-N-[(cis-4-{[4-(dimethylamino)-6-methylpyrimidin-2-yl]amino}cyclohexyl)methyl]benzamide]",2 (Class 2: The value of percent of control at 10^−7 M was from 40% to 60% or the value of IC′50 was from 50 nM to 200 nM.)
17,"Cc1cnc(N[C@H]2CC[C@@H](C(=O)N[C@H](C)c3ccccc3)CC2)nc1N(C)C [compound 2771, cis-4-{[4-(dimethylamino)-5-methylpyrimidin-2-yl]amino}-N-[(1R)-1-phenylethyl]cyclohexanecarboxamide]",2 (Class 2: The value of percent of control at 10^−7 M was from 40% to 60% or the value of IC′50 was from 50 nM to 200 nM.)
18,"Cc1ccc([C@H](C)NC(=O)[C@H]2CC[C@@H](Nc3ncc(C)c(N(C)C)n3)CC2)cc1 [compound 2772, cis-4-{[4-(dimethylamino)-5-methylpyrimidin-2-yl]amino}-N-[(1S)-1-(4-methylphenyl)ethyl]cyclohexanecarboxamide]",1 (Class 1: The value of percent of control at 10^−7 M was less than 40% or the value of IC50 was less than 50 nM.)
